# Where two headings read alike, the source gives them in different places.
# Tests used:
# [1] = molecular target: T1, human neurokinin-1 receptor (NK1R) (Homo sapiens, UniProt P25103); test: Substance P receptor binding: 125I-substance P displacement from human NK1R expressed in COS cells; details: 125I-SP, COS cells expressing human NK1R; read-out: IC50 (concentration required to inhibit the binding of substance P to the human neurokinin-1 receptor by 50%)
# T1 construct: the cDNA for the human NK1R was cloned into the expression vector pCDM9; expressed in transfected cells; host or cells: COS cells (transient, electroporation, vector pCDM9)
# Description: The affinity of a variety of compounds for the substance P receptor was determined employing the following procedure.
# A. Receptor Expression in COS
# To express the cloned human neurokinin-1 receptor (NK1R) transiently in COS, the cDNA for the human NK1R was cloned into the expression vector pCDM9 which was derived from pCDM8 (Invitrogen) by inserting the ampicillin resistance gene (nucleotide 1973 to 2964 from Bluescript SK+) into the Sac II site. Transfection of 20 μg of the plasmid DNA into 10 million COS cells was achieved by electroporation in 800 μl of the transfection buffer ([…], 1.2 mM MgCl2, 2.4 mM K2 HPO4, 0.6 mM KH2 PO4, 10 nM glucose, 10 mM HEPES pH 7.4) at 260V and 950 μF using the IBI Genezapper (IBI, New Haven, Conn.). The cells were incubated in 10% fetal calf serum, 2 mM glutamine, 100 U/ml penicillin-streptomycin, and 90% DMEM media (Gibco, Grand Island, N.Y.) in 5% CO2 at 37° C. for three days before the binding assay.
# B. Assay Protocol using COS
# The binding assay of human NK1R expressed in COS cells is based on the use of ^125 I-substance P (^125 I-SP, from DuPont, Boston, Mass.) as a radioactively labeled ligand which competes with unlabeled substance P or any other ligand for binding to the human NK1R. Monolayer cell cultures of COS were dissociated by the non-enzymatic solution (Specialty Media, Lavallette, N.J.) and resuspended in appropriate volume of the bind buffer (50 mM Tris pH 7.5, 5 mM MnCl2, 150 mM NaCl, 0.04 mg/ml bacitracin, 0.004 mg/ml leupeptin, 0.2 mg/ml BSA, 0.01 mM phosphoramidon) such that 200 μl of the cell suspension would give rise to about 10,000 cpm of specific ^125 I-SP binding (approximately 50,000 to 200,000 cells). In the binding assay, 200 μl of cells were added to a tube containing 20 μl of 1.5 to 2.5 nM of ^125 I-SP and 20 μl of unlabeled substance P or any other test compound. The tubes were incubated at 4° C. or at room temperature for 1 hour with gentle shaking. The bound radioactivity was separated from unbound radioactivity by GF/C filter (Brandel, Gaithersburg, Md.) which was pre-wetted with 0.1 polyethylenimine. The filter was washed with 3 ml of wash buffer (50 Tris pH 7.5, 5 mM MnCl21 150 mM NaCl) three times and its radioactivity was determined by gamma counter.
# A variety of compounds were tested according to the COS cell procedure. The concentration of compound required to inhibit the binding of substance P to the human neurokinin-1 receptor by 50% was measured.
# SRIF receptor = SRIF receptor affinity: displacement of 125I-CGP-23996 from AtT-20 cells; assay type: binding; details: displacement of 125I-CGP-23996, AtT-20 cells
# Description: The affinity of a variety of compounds for the SRIF receptor was determined by studying the displacement of ^125 I-CGP-23996 from AtT-20 cells using the method generally in accordance with Raynor and Reisine, Journal of Pharmacology and Experimental Therapeutics, 1989, 251;2, 510.
# [2] = tested on: somatostatin receptors of AtT-20 cells; details: read-out: IC50 for binding somatostatin receptors of AtT-20 cells, cited from earlier work
# β-adrenergic receptor = test: Radioligand displacement from AtT-20 and brain cells, β-adrenergic receptor; assay type: binding; details: 125I-CYP (0.1 nM)
# Opiate Receptor = test: Radioligand displacement from brain cells, opiate receptor; assay type: binding; details: 3H-naloxone (0.5 nM)
# Dopamine Receptor = test: Radioligand displacement from brain cells, dopamine receptor; assay type: binding; details: 3H-spiperone (0.1 nM)
# Muscarinic cholingeric = assay type: binding; details: 3H-QNB (0.1 nM)
# β-adrenergicreceptor = details: AtT-20 cells; cited from earlier work
# T1 sequence (P25103 whole entry): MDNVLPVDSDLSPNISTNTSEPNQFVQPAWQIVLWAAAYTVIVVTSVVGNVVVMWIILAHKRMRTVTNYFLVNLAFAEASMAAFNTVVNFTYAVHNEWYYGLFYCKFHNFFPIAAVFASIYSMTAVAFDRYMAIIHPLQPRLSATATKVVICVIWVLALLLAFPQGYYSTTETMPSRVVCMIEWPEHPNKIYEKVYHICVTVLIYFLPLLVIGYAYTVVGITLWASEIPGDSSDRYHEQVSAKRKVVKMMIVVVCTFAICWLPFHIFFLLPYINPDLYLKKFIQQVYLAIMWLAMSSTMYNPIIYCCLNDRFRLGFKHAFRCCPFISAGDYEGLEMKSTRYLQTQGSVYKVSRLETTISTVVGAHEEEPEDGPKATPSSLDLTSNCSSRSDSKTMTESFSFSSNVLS
Compound,IC50 [1],IC50 (SRIF receptor),IC50 [2],Binding Inhibition (β-adrenergic receptor; AtT-20),Binding Inhibition (β-adrenergic receptor; Brain),Binding Inhibition (Opiate Receptor),Binding Inhibition (Dopamine Receptor),Binding Inhibition (Muscarinic cholingeric; AtT-20),Binding Inhibition (Muscarinic cholingeric; Brain),concentration required for β-adrenergic receptor binding relative to somatostatin receptor (β-adrenergicreceptor),IC50 ([2]; also printed as 9.3×10^-9 M)
"2-(1H-indol-3-yl)ethyl-6-O-(5-aminopentyl)-2,4-di-O-deoxy-β-D-glucopyranoside [Compound 2]",180 nM,1300 nM,~1000 nM,–,–,–,–,–,–,–,–
"NCCCCCOC[C@H]1O[C@@H](OCCc2c[nH]c3ccccc23)[C@H](OCc2ccccc2)[C@@H](OCc2ccccc2)[C@@H]1OCc1ccccc1 [Compound 1, 2-(1H-Indol-3yl)ethyl-6-O-(5-aminopentyl)-2,3,4-tri-O-benzyl-β-D-glucopyranoside]",120 nM,9500 nM,~9500 nM,~70%,45%,55%,82%,20%,83%,five fold higher concentration,–
"C[C@H](N)C(=O)NCC(=O)N[C@H]1CSSC[C@@H](C(=O)O)NC(=O)[C@H](CO)NC(=O)[C@H]([C@@H](C)O)NC(=O)[C@H](Cc2ccccc2)NC(=O)[C@H]([C@@H](C)O)NC(=O)[C@H](CCCCN)NC(=O)[C@H](Cc2c[nH]c3ccccc23)NC(=O)[C@H](Cc2ccccc2)NC(=O)[C@H](Cc2ccccc2)NC(=O)[C@H](CC(N)=O)NC(=O)[C@H](CCCCN)NC1=O [SRIF, somatostatin, reference compound]",–,9.3 nM,–,–,–,–,–,–,–,–,~9.3 nM
